{"source": "patent US20100330070A1", "about": "“Methods Of Making An Antibody And Compositions Thereof” (priority 2009, published 2010)", "key": {"LL-37 [1]": {"tested_on": "LL-37", "test": "LL-37 expression by OBA9 cells with Sepharose-coupled benzoic acid isomers", "type": "cell-based, human", "details": "isomer coupled to NHS-activated Sepharose gel with EDC", "source_text": "In order to investigate the structure-function relationship underlying EGCG-mediated induction of LL-37 from human gingival epithelial cell line OBA9, different isomers of benzoic acids are examined for their effects on the LL-37 expression by OBA9 cells. Each isomer of benzoic acids is coupled to NHS-activated Sepharose gel (Pierce) using a cross-linker, 1-Ethyl-3-[3-dimethylaminopropyl]carbodiimide (EDC, Pierce). The isomers of benzoic acids include 1) 2,6-di-hydroxy benzoic acid, 2) 2,3,4-tri-hydroxy benzoic acids, 3) 3,4,5-tri-hydroxy benzoic acids, and 4) 2,4,6-tri-hydroxy benzoic acids."}, "LL-37 mRNA [2]": {"tested_on": "LL-37 mRNA", "test": "LL-37 mRNA expression in human gingival epithelial cell line OBA9", "type": "cell-based", "details": "OBA9 cells, 4-hour exposure, 0.1, 1.0 and 10 ug/ml", "method": "(§1) Both LL-37 and hBD2 mRNA expression in OBA9 cells are induced after a 4-hour exposure to green tea polyphenol extract, Teaflan 90S (EGCG 50%, ECG 13%), and purified EGCG (95% pure, SIGMA) at concentrations of 0.1, 1.0 and 10 ug/ml. EGCG increases the production of LL-37 and hBD2 at the mRNA level in the human gingival epithelial cell line OBA9 (FIG. 1) as well as the human lung carcinoma cell line A549."}, "hBD2 mRNA [3]": {"tested_on": "hBD2 mRNA", "test": "hBD2 mRNA expression in human gingival epithelial cell line OBA9", "type": "cell-based", "details": "OBA9 cells, 4-hour exposure, 0.1, 1.0 and 10 ug/ml", "method": "as §1"}, "LL-37 mRNA [4]": {"tested_on": "LL-37 mRNA", "test": "LL-37 mRNA level in human lung carcinoma cell line A549", "type": "cell-based", "details": "A549 cells", "method": "as §1"}, "hBD2 mRNA [5]": {"tested_on": "hBD2 mRNA", "test": "hBD2 mRNA level in human lung carcinoma cell line A549", "type": "cell-based", "details": "A549 cells", "method": "as §1"}, "[6]": {"tested_on": "Actinobacillus actinomycetemcomitans Y4", "test": "Bactericidal effect of culture supernatant of treated OBA9 cells", "type": "cell-based", "details": "supernatant of OBA9 treated at 20 ug/ml; compared with non-treated, catechin- and 2,4-dihydroxy benzoic acid-treated supernatant", "method": "The culture supernatant isolate from OBA9 is treated with 1) EGCG, 2) catechin, 3) 2,4-dihydroxy benzoic acid, and 4) 3,4,5-tri-hydroxy benzoic acid (20 ug/ml, respectively) and examined for their bactericidal effects on Actinobacillus actinomycetemcomitans Y4 (Aa Y4)."}, "LL-37 mRNA [7]": {"tested_on": "LL-37 mRNA", "test": "RT-PCR of LL-37 mRNA in cheek epithelial cells after mouthwash", "type": "in vivo, human", "details": "mouthwash with 40 ug/ml, after 5 minutes", "source_text": "(§2) Cheek epithelium is utilized for monitoring LL-37 mRNA and protein expression to determine if Trihydroxybenzoate Derivatives of the Invention can induce LL-37 in vivo. […] The isolated cheek cells are also subjected to Western blot analysis for protein expression of LL-37 by cheek epithelium using anti-LL-37 monoclonal antibody. The expression of both the proform (18 kD, also termed as hCAP18) and secreted form (4.5 kD) of LL-37 (12) in cheek epithelial cells is induced by Trihydroxybenzoate Derivatives of the Invention (e.g., EGCG (95% SIGMA), or by EGCG (90% Teavigo))."}, "LL-37 [8]": {"tested_on": "LL-37", "test": "Western blot of LL-37 protein in cheek epithelial cells", "type": "in vivo, human", "details": "Western blot with anti-LL-37 monoclonal antibody", "source_text": "as §2"}, "LL-37 [9]": {"tested_on": "LL-37", "test": "ELISA of LL-37 induction from OBA9 cells", "type": "cell-based, human", "details": "for induction of LL-37 (ELISA): 20 ug/ml; for induction of LL-37 expression: in the absence of EGCG", "method": "(§3) Using ELISA systems to detect LL-37 (Forsyth in-house) and hBD2 (Peprotech), 33 natural compounds (20 ug/ml) are examined for their ability to induce LL-37 and hBD2 from OBA9 cells. Although the sensitivity of the hBD2 ELISA is higher than that of LL-37 ELISA (10 pg/ml vs 1 ng/ml, respectively), the induction of LL-37 is more prominent than hBD2 (FIG. 2 A&B, LL-37; C&D, hBD2). […] Bactericidal effects of LL-37 and hBD2 are, in general, potent.\nThe Trihydroxybenzoate Derivatives of the Invention and rosemarinic acid, courmarin, catechin gallate, epicatechin gallate, epigallocatechin, and tannic acid are tested to induce LL-37 from OBA9 cells in the absence of EGCG."}, "hBD2": {"tested_on": "hBD2", "test": "ELISA of hBD2 induction from OBA9 cells", "type": "cell-based, human", "details": "20 ug/ml", "method": "as §3"}}}
{"molecule": "O=C(O)c1ccc(O)c(O)c1O", "note": "[2,3,4-tri-hydroxy benzoic acids, 2,3,4-trihydroxybenzoic acid]", "values": [{"measurement": "induction of LL-37 expression by OBA9 cells", "setting": "LL-37 [1]", "value": "show the induction"}]}
{"molecule": "O=C(O)c1c(O)cc(O)cc1O", "note": "[2,4,6-tri-hydroxy benzoic acids]", "values": [{"measurement": "induction of LL-37 expression by OBA9 cells", "setting": "LL-37 [1]", "value": "not"}]}
{"molecule": "O=C(O)c1c(O)cccc1O", "note": "[2,6-di-hydroxy benzoic acids, 2,6-di-hydroxy benzoic acid]", "values": [{"measurement": "induction of LL-37 expression by OBA9 cells", "setting": "LL-37 [1]", "value": "not"}]}
{"molecule": "O=C(O[C@@H]1Cc2c(O)cc(O)cc2O[C@@H]1c1cc(O)c(O)c(O)c1)c1cc(O)c(O)c(O)c1", "note": "[EGCG]", "values": [{"measurement": "LL-37 mRNA expression", "setting": "LL-37 mRNA [2]", "value": "induced"}, {"measurement": "hBD2 mRNA expression", "setting": "hBD2 mRNA [3]", "value": "induced"}, {"measurement": "production of LL-37 at the mRNA level", "setting": "LL-37 mRNA [4]", "value": "increases"}, {"measurement": "production of hBD2 at the mRNA level", "setting": "hBD2 mRNA [5]", "value": "increases"}, {"measurement": "bactericidal effects of culture supernatant on Aa Y4", "setting": "[6]", "value": "more bactericidal effects than control"}, {"measurement": "LL-37 mRNA expression by cheek epithelial cells", "setting": "LL-37 mRNA [7]", "value": "up-regulated"}, {"measurement": "expression of proform (18 kD) and secreted form (4.5 kD) of LL-37 in cheek epithelial cells", "setting": "LL-37 [8]", "value": "induced"}]}
{"molecule": "CCCCCCCCCCCCCC(=O)O[C@@H]1[C@@H](C)[C@@]2(O)[C@@H](C=C(CO)C[C@]3(O)C(=O)C(C)=C[C@@H]23)[C@@H]2C(C)(C)[C@]12OC(C)=O", "note": "[PMA]", "values": [{"measurement": "induction of LL-37 (ELISA)", "setting": "LL-37 [9]", "value": "induced"}, {"measurement": "induction of hBD2 (ELISA)", "setting": "hBD2", "value": "minimal induction activities"}]}
{"molecule": "O=C(/C=C/c1ccc(O)c(O)c1)O[C@H](Cc1ccc(O)c(O)c1)C(=O)O", "note": "[Rosemarinic acid]", "values": [{"measurement": "induction of LL-37 expression", "setting": "LL-37 [9]", "value": "little or no induction"}]}
{"molecule": "O=c1ccc2ccccc2o1", "note": "[courmarin]", "values": [{"measurement": "induction of LL-37 expression", "setting": "LL-37 [9]", "value": "little or no induction"}]}
{"molecule": "O=C(O)c1cc(O)c(O)c(O)c1", "note": "[gallic acid, 3,4,5-trihydroxybenzoic acid]", "values": [{"measurement": "induction of LL-37 expression", "setting": "LL-37 [9]", "value": "more potent than 3,4,-dihydroxy benzoate"}, {"measurement": "bactericidal effects of culture supernatant on Aa Y4", "setting": "[6]", "value": "more bactericidal effects than control"}, {"measurement": "induction of LL-37 expression by OBA9 cells", "setting": "LL-37 [1]", "value": "show the induction"}]}
{"molecule": "Poly IC", "values": [{"measurement": "induction of LL-37 (ELISA)", "setting": "LL-37 [9]", "value": "induced"}, {"measurement": "induction of hBD2 (ELISA)", "setting": "hBD2", "value": "minimal induction activities"}]}
